US10973906B2, “Therapeutic peptides and vaccines” (priority 2005, dated 2021)
Where a SMILES comes first, the peptide text is derived from it.

B1: MIP-1β: CCR5 selective chemokine ligand (protein)
chain: APMGSDPPTACCFSYTARKLPRNFVVDYYETSSLCSQPAVVFQTKRSKQVCADPSESWVQEYVYDLELN

Experiments:
CCR5 [1] = molecular target: T1, CCR5 (Homo sapiens, UniProt P51681); experiment: biochemical; type: binding
T1 construct: expressed in transfected cells; host or cells: ChfTh-CCR5 expressing cells (so in the source)
T1 sequence (P51681 whole entry): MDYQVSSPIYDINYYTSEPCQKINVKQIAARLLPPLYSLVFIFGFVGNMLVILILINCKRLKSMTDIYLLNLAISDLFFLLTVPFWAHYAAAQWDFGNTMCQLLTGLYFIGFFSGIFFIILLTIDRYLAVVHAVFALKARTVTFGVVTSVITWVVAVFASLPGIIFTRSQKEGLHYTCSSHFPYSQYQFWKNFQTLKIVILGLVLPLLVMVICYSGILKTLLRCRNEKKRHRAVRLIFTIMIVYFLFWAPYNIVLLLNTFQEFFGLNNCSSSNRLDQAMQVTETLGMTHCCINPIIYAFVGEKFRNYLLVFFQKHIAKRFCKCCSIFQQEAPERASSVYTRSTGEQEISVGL
Experimental: (§1) The antiviral assays are described in detail in the prior art (Ruff et al., 2001, Antiviral Res, 52, 63-75), which is hereby incorporated by reference, and will be here described only briefly.
(§2) We prepared a novel FITC-labeled tracer from soluble gp120 proteins (25 μg/ml) using a Fluorescent Protein labeling kit (Roche Diagnostics GmBh). Binding assays were performed in binding buffer containing 50mM HEPES (Gibco), pH=7.4, 5 mM MgCl2, 1 mM CaCl2.6H20 (Sigma), 5% BSA (Sigma) and 0.1% NaN3, final volume 100 μl. Binding was carried out for 1 h at 37° C. in 96-well filter plates (Millipore) using several CCR5 expressing lines, as indicated. Unbound labeled proteins were removed by rapid vacuum filtration and washing using a 96-well plate manifold. Filters were counted with a fluorescent plate reader (Hewlett Packard) at 495/530 nm. Non-specific binding was determined in the absence of sCD4 and was subtracted from the gp120-FITC binding in presence of 100 nM sCD4 (total binding).

CCR5 [2] = molecular target: T1, CCR5; type: binding
Experimental: as §1, §2
These studies are illustrated in FIG. 4. Total specific binding was defined as the difference in binding of FITIC-gp120 with or without added sCD4 (100 nM).
Data shown (panels A-C) are the mean and […] of three experiments, each with triplicate determinations. Analyses were performed by PRISM.

| Molecule | EC50 (CCR5 [1]) | inhibition of binding of gp120 proteins Bal and CM235 (CCR5 [2]; 10 nM) | inhibition of binding of gp120BaL/sCD4 to CCR5 (CCR5 [2]; gp120BaL/sCD4, Cf2Th/synR5 cells) |
| --- | --- | --- | --- |
| N=C(N)NCCC[C@H](NC(=O)[C@H](Cc1ccc(O)cc1)NC(=O)[C@H](CCCNC(=N)N)NC(=O)[C@H](CC(N)=O)NC(=O)[C@@H](N)CC(N)=O)C(=O)O [NNRYR] (H-NNRYR-OH) | 0.2 nM | – | – |
| N=C(N)NCCC[C@H](NC(=O)[C@H](Cc1ccc(O)cc1)NC(=O)[C@H](CCC(=O)O)NC(=O)[C@H](CO)NC(=O)[C@@H](N)CC(N)=O)C(=O)O [NSEYR] (H-NSEYR-OH) | 0.08 nM | – | – |
| NC(=O)C[C@H](NC(=O)[C@H](CO)NC(=O)[C@@H](N)CC(N)=O)C(=O)N[C@@H](Cc1ccc(O)cc1)C(=O)N[C@@H](CO)C(=O)O [NSNYS] (H-NSNYS-OH) | 0.5 nM | – | – |
| N=C(N)NCCC[C@H](NC(=O)[C@H](Cc1ccc(O)cc1)NC(=O)[C@H](CO)NC(=O)[C@H](CO)NC(=O)[C@@H](N)CC(N)=O)C(=O)O [NSSYR] (H-NSSYR-OH) | 0.04 nM | – | – |
| C[C@@H](O)[C@H](NC(=O)[C@H](Cc1ccc(O)cc1)NC(=O)[C@H](CO)NC(=O)[C@H](CO)NC(=O)[C@@H](N)CC(N)=O)C(=O)O [NSSYT] (H-NSSYT-OH) | 0.2 nM | – | – |
| C[C@@H](O)[C@H](NC(=O)[C@@H](N)CC(N)=O)C(=O)N[C@@H](CO)C(=O)N[C@@H](Cc1ccc(O)cc1)C(=O)N[C@@H](CCCNC(=N)N)C(=O)O [NTSYR] (H-NTSYR-OH) | 0.1 nM | – | – |
| N=C(N)NCCC[C@H](NC(=O)[C@H](Cc1ccc(O)cc1)NC(=O)[C@H](CCC(=O)O)NC(=O)[C@H](CO)NC(=O)[C@@H](N)CO)C(=O)O [SSEYR] (H-SSEYR-OH) | 0.3 nM | – | – |
| CC[C@H](C)[C@H](NC(=O)[C@@H](N)[C@@H](C)O)C(=O)N[C@@H](CO)C(=O)N[C@@H](Cc1ccc(O)cc1)C(=O)N[C@@H](CCCNC(=N)N)C(=O)O [TISYR] (H-TISYR-OH) | 0.4 nM | – | – |
| C[C@@H](O)[C@H](N)C(=O)N[C@@H](CO)C(=O)N[C@@H](CC(N)=O)C(=O)N[C@@H](Cc1ccc(O)cc1)C(=O)N[C@@H](CO)C(=O)O [TSNYS] (H-TSNYS-OH) | 0.2 nM | – | – |
| C[C@@H](O)[C@H](N)C(=O)N[C@H](C(=O)N[C@@H](CO)C(=O)N[C@@H](Cc1ccc(O)cc1)C(=O)N[C@@H](CCCNC(=N)N)C(=O)O)[C@@H](C)O [TTSYR] (H-TTSYR-OH) | 0.1 nM | – | – |
| C[C@@H](O)[C@H](N)C(=O)N[C@H](C(=O)N[C@@H](CO)C(=O)N[C@@H](Cc1ccc(O)cc1)C(=O)N[C@H](C(=O)O)[C@@H](C)O)[C@@H](C)O [TTSYT] (H-TTSYT-OH) | 0.05 nM | – | – |
| N=C(N)NCCC[C@H](NC(=O)[C@H](Cc1ccc(O)cc1)NC(=O)[C@H](CO)NC(=O)[C@H](CO)NC(=O)[C@@H](N)Cc1ccc(O)cc1)C(=O)O [YSSYR] (H-YSSYR-OH) | 0.6 nM | – | – |
| B1 | – | inhibited | completely inhibited |
